Source: patent US20120115802A1, “Method for using ulipristal acetate with cytochrome isozyme modulators” (LABORATOIRE HRA PHARMA, priority 2010, published 2012)

Assays:
[1] = Metabolism in liver microsomal preparations; type: in vitro ADME, mice, rats, rabbits, dogs, monkeys and humans; conditions: in vitro
Text: Metabolism of ulipristal acetate was investigated in vitro in liver microsomal preparations from mice, rats, rabbits, dogs, monkeys and humans.

[2] = used within 72 hours of unprotected intercourse; cited from earlier work

## CC(=O)O[C@]1(C(C)=O)CC[C@H]2[C@@H]3CCC4=CC(=O)CCC4=C3[C@@H](c3ccc(N(C)C)cc3)C[C@@]21C [ulipristal acetate, 17α-acetoxy-11β-[4-N,N-dimethylamino-phenyl)-19-norpregna-4,9-diene-3,20-dione]
[1]; liver microsomes from mice, rats, rabbits, dogs, monkeys and humans, proportions varied between species
  Metabolites produced in liver microsomes across species: All species produced the same two major metabolites
[1]; liver microsomes, humans compared with the other species
  Metabolite unique to humans: No metabolite was detected which was unique to humans
[2]
  Efficacy for preventing pregnancy compared with levonorgestrel: as efficacious as levonorgestrel
